The values that follow come from patent US7999101B2, “Cationic lipids for the transfection of nucleic acids” (Politecnico Di Milano, priority 2005, dated 2011).

Type in all cases: cell-based
The test system of data set [1] is cell line PC3 (human androgen-independent prostate carcinoma). Nature of the data set: Transfection of PC3 cells with plasmid pEGFP-N1; GFP expression by cytofluorimetry 48 h later, and survival. To be noted: for capable of giving a significant percentage of living cells expressing the GFP protein (in words) / toxicity / cell mortality with respect to 16, 22 and 17 (in words): 5 μg pEGFP-N1. As for the experimental part:
The plasmid vector PEGFP-N1 (BD Biosciences), containing the gene encoding green fluorescent protein (GFP) has been used in the transfection tests. Due to its properties, GFP is a useful tool for monitoring “passive” gene expression: indeed, fluorescent detection in this particular system is performed by means of cytofluorimetry or by microscopy.
Transfection tests have been performed on the cell line PC3 (human androgen-independent prostate carcinoma) with the plasmid PEGFP-N1 used in quantities equal to 2.5 and 5 μg. The general experimental outline envisaged 4 hours of transfection in reduced-serum culture medium, and in the absence of antibiotics. Upon completion of transfection, the culture medium has been replaced with normal growth medium and the evaluation of GFP expression has been performed 48 hours later by means of cytofluorimetry.

For data set [2], the system named is normal human thyrocytes (Line 636). Nature of the data set: Transfection of normal human thyrocytes (Line 636) with 16/pEGFP-N1 complexes; GFP expression and survival. The conditions noted are these: 16/pEGFP-N1 (5 μg).
Data set [3] relates to transformed human kidney cells (Line 293). Nature of the data set: Transfection of transformed human kidney cells (Line 293) with 16/pEGFP-N1 complexes; GFP expression and survival. The conditions noted are these: 16/pEGFP-N1 (5 μg).
Where [4] appears, read: 2.5 μg pEGFP-N1, 16 and 17 at CR = 6.0, commercial agents per manufacturer, at least 3 independent experiments (Table 3).
Setting [5] is: 2.5 μg pEGFP-N1, 16 and 17 at CR = 6.0, commercial agents per manufacturer, mean percentage with respect to control, at least 3 independent experiments (Table 3).
[6] abbreviates: 2.5 μg pEGFP-N1, charge ratio CR = 1.5.
[7] abbreviates: 2.5 μg pEGFP-N1, charge ratio CR = 3.0.
[8] abbreviates: 2.5 μg pEGFP-N1, charge ratio CR = 6.0 (Table 1).
[9] abbreviates: 5 μg pEGFP-N1, 16 and 17 at CR = 6.0, commercial agents per manufacturer, at least 3 independent experiments (Table 3).
Where [10] appears, read: 5 μg pEGFP-N1, 16 and 17 at CR = 6.0, commercial agents per manufacturer, mean percentage with respect to control, at least 3 independent experiments (Table 3).
The mark [11] stands for this setting: 5 μg pEGFP-N1, charge ratio CR = 1.5.
Setting [12] is: 5 μg pEGFP-N1, charge ratio CR = 3.0.
Where [13] appears, read: 5 μg pEGFP-N1, charge ratio CR = 6.0 (Table 1).
Setting [14] is: CR = 6, percentage with respect to control, preliminary data.
Where [15] appears, read: 5 μg pEGFP-N1, constant charge ratio CR = 6 (Table 2).
Where [16] appears, read: 5 μg pEGFP-N1, constant charge ratio CR = 6, percentage with respect to control (Table 2).

Consider `CCCCCCCCCCCCCCNc1nc(NCCS)nc(NCCCN)n1` [Compound 16], for which the “GFP+ living cells” value was 20.5% in data set [1] (setting [4]); 1.18% in data set [1] (setting [6]); 4.05% in data set [1] (setting [7]); 32.40% in data set [1] (setting [8]); 41.14% in data set [1] (setting [9]); 1.54% in data set [1] (setting [11]). The “GFP+ living cells” value in data set [1] (setting [12]) was found to be 10.6%; in data set [1] (setting [13]), 64.6%; in data set [2] (CR = 6, preliminary data), 34.3%; in data set [3] (CR = 6, preliminary data), 58.3%. The “Total GFP+ cells” value came out at 25.4% in data set [1] (setting [4]); 4.75% in data set [1] (setting [6]); 7.81% in data set [1] (setting [7]); 46.13% in data set [1] (setting [8]); 57% in data set [1] (setting [9]); 1.85% in data set [1] (setting [11]). The “Total GFP+ cells” value in data set [1] (setting [12]) is 12.45%; in data set [1] (setting [13]), 70.70%; in data set [2] (CR = 6, preliminary data) it was 53.8%; in data set [3] (CR = 6, preliminary data), 76.2%. Further, the Survival in data set [1] (setting [5]) was 81.0%; in data set [1] (2.5 μg pEGFP-N1, charge ratio CR = 1.5, percentage with respect to control), 71.4%; in data set [1] (2.5 μg pEGFP-N1, charge ratio CR = 3.0, percentage with respect to control) it was 79.8%; in data set [1] (2.5 μg pEGFP-N1, charge ratio CR = 6.0, percentage with respect to control (Table 1)), 86.3%; in data set [1] (setting [10]), 58.0%; in data set [1] (5 μg pEGFP-N1, charge ratio CR = 1.5, percentage with respect to control), 100%. Also, the Survival amounted to 96.0% in data set [1] (5 μg pEGFP-N1, charge ratio CR = 3.0, percentage with respect to control); 64.4% in data set [1] (5 μg pEGFP-N1, charge ratio CR = 6.0, percentage with respect to control (Table 1)); 75.3% in data set [2] (setting [14]); 86.8% in data set [3] (setting [14]). Besides, in data set [1] (2.5 and 5 μg pEGFP-N1), the “cellular toxicity (in words)” value is “absence of any significant cellular toxicity”. Further, the “capacity to induce the transfection of PC3 cells (in words)” value in data set [1] (2.5 and 5 μg pEGFP-N1, GFP expression 48 hours following transfection) is on record as “significant percentage of GFP-positive cells”. Besides, in data set [1] (equal amounts of plasmid DNA), the “transfection efficiency compared with Lipofectamine 2000 (in words)” value was “comparable to that of Lipofectamine 2000 only in the presence of higher quantities of plasmid DNA”.
Turning to `CCCCCCCCCCCCCCNc1nc(NCCS)nc(N2CCNCC2)n1` [Compound 18, 2-[4-(2-N-piperazinyl)-6-tetradecylamino-[1,3,5]triazin-2-ylamino]-ethanethiol], in data set [1], the “capable of giving a significant percentage of living cells expressing the GFP protein (in words)” value was “none”; the “toxicity / cell mortality with respect to 16, 22 and 17 (in words)” value is reported as “significantly greater cell mortality”. Moreover, in data set [1] (setting [15]), the “GFP+ living cells” value was determined as 8.4% and the “Total GFP+ cells” value is 56.2%. Besides, the Survival in data set [1] (setting [16]) was 6.3%.
With `NCCCNc1nc(NCCS)nc(NCc2ccccc2)n1` [Compound 20], in data set [1], the “capable of giving a significant percentage of living cells expressing the GFP protein (in words)” value is “none”; the “toxicity / cell mortality with respect to 16, 22 and 17 (in words)” value is listed as “did not show excessive levels of toxicity”. Also, in data set [1] (setting [15]), the “GFP+ living cells” value is 0.01% and the “Total GFP+ cells” value was 0.9%. The Survival in data set [1] (setting [16]) was 74.0%.
The matching figures for `CCCCCCNc1nc(NCCS)nc(NCCCN)n1` [Compound 21]: “none”, “significantly greater cell mortality”, 0.3%, 2.1% and 12.8%.
On to `CCCCCCCC/C=C\CCCCCCCC(=O)OCC(C[N+](C)(C)C)OC(=O)CCCCCCC/C=C\CCCCCCCC.[Cl-]` (centres unmarked) [DOTAP, reference compound], for which, in data set [1] (setting [4]), the “GFP+ living cells” value is on record as 12.0% and the “Total GFP+ cells” value stood at 15.8%. This molecule also registered a Survival in data set [1] (setting [5]) of 78.6%. Besides, in data set [1] (setting [9]), the “GFP+ living cells” value turned out to be 21.3% and the “Total GFP+ cells” value was found to be 23.5%. This molecule also gave a Survival in data set [1] (setting [10]) of 65.8%. Moreover, in data set [1] (both quantities of plasmid DNA), the “percentage of transfection with respect to compounds 16 and 17 (in words)” value is given as “lower percentage of transfection”; the “toxicity with respect to compounds 16 and 17 (in words)” value is given as “less toxic”.
